Assay results from patent publication US11878970B2, “Allosteric chromenone inhibitors of phosphoinositide 3-kinase (PI3K) for the treatment of disease” (Petra Pharma Corporation, priority 2021, dated 2024).

Experiments:
[1] = molecular target: PI3K-α (PIK3CA) in MDA-MB-453 cells (Homo sapiens, UniProt P42336); experiment: PI3K-alpha kinase (PIK3CA) in vitro cell based assay, MDA-MB-453 cells, SureFire Ultra AlphaLisa; details: read-out: PI3K-α (PIK3CA) in vitro cell based assay IC50
Procedure: PI3K-Alpha Kinase (PIK3CA) Activity In Vitro Cell Based Assay and Determining IC50 Values for Inhibitors
The MDA-MB-453 (ATCC-HTB-131) cell line was obtained from the American Type Culture Collection (Manassas, VA). Cells were maintained in Dulbecco's Modified Eagle Media (DMEM, Gibco 11965-092) supplemented with 10% Fetal Bovine Serum, heat inactivated (FBS HI, Gibco 10082-147), 1× non-essential amino acids (NEAA, Gibco 11140-050), and 1 mM sodium pyruvate (Gibco 11360-070). Cultures were maintained in a humidified incubator at 37° C. under 5% CO2/95% air.
For compound testing in 0% FBS, MDA-MB-453 cells were seeded at a density of 1.5×10^4 cells per well in white 384-well plates in 20 μl of Minimum Essential Media (MEM) assay media with 1×NEAA, 1 mM sodium pyruvate, and 1 μg/mL human insulin (Sigma I9278). Compounds dissolved in 10 mM stock solutions in DMSO were serially diluted 1:3 in DMSO to generate a 10-point dilution series and plated using an acoustic liquid handler system (Echo 550 Series Liquid Handler, Labcyte). A 5× intermediate compound dilution plate in MEM with 1×NEAA and 1 mM sodium pyruvate (150 μM starting compound concentration in 1.5% DMSO) was then prepared. Five μl of the intermediate serially diluted compounds were added to the cell plate to final concentrations ranging from […] in 0.3% DMSO. 0.3% DMSO alone was used to establish the maximum (MAX) signal and GDC-0032 at a final concentration of 1 μM was used as a reference compound for the minimum (MIN) signal. After 3 hours treatment, the medium was removed, and the cells lysed in 10 μL of 1× SureFire Lysis buffer with shaking for 10 minutes at room temperature. The Acceptor Mix (Reaction Buffer 1+Reaction Buffer 2+Activation Buffer+SureFire Ultra Acceptor Beads) was prepared by diluting Activation buffer 25-fold in combined Reaction Buffer 1 and Reaction Buffer 2. The Acceptor beads were diluted 50-fold in the combined Reaction Buffers. Five μL of Acceptor Mix was added to each well, the plate was sealed and covered with foil and incubated for 1 hour at room temperature. The Donor Mix (dilution buffer+SureFire Ultra Donor Beads) was prepared by diluting Donor Beads 50-fold in dilution buffer. Five μL of the Donor Mix was added to each well and the plate sealed and covered with foil and incubated for 1 hour at room temperature in the dark. The plates were read on a Neo2 plate reader instrument from Biotek using standard AlphaLisa settings. Compounds were tested in duplicate and the average % inhibition at each compound concentration was used to generate a single dose response curve. The data were processed using the Genedata-Screener tool. Relative IC50 values were determined using luminescence units by calculating percent inhibition with respect to the in-plate “MIN” (GDC-0032 reference control) and “MAX” (DMSO) controls. The data was analyzed using a 4-parameter nonlinear logistic equation (four-parameter logistic concentration-response curve): Y=bottom+[(top−bottom)/1+(X/IC50)slope] where Y=% inhibition, X=concentration of inhibitor, bottom=minimum value of y attained by curve-fit, top=maximum value of y attained by curve-fit and slope=steepness of curve at the IC50. % Inhibition=[(signal at X−median Min)/(median Max−median Min)]×100 IC50: concentration of compound that reduces a given response (ligand binding, enzyme response) by 50%. Relative IC50: concentration giving half the compound's maximum response.

[2] = molecular target: T1, PI3K-α (PIK3CA) H1047R mutant, p110α/p85α complex (Homo sapiens, UniProt P42336, H1047R); experiment: PI3K-alpha kinase (PIK3CA) biochemical activity, ADP-Glo, H1047R mutant; details: Soy PI lipid substrate
T1 construct: Recombinant, catalytically active human full length PIK3KA Wild-type and H1047R mutant; 6×His (N); purchased EMD Millipore Sigma 14-792M
T1 sequence (P42336 whole entry H1047R): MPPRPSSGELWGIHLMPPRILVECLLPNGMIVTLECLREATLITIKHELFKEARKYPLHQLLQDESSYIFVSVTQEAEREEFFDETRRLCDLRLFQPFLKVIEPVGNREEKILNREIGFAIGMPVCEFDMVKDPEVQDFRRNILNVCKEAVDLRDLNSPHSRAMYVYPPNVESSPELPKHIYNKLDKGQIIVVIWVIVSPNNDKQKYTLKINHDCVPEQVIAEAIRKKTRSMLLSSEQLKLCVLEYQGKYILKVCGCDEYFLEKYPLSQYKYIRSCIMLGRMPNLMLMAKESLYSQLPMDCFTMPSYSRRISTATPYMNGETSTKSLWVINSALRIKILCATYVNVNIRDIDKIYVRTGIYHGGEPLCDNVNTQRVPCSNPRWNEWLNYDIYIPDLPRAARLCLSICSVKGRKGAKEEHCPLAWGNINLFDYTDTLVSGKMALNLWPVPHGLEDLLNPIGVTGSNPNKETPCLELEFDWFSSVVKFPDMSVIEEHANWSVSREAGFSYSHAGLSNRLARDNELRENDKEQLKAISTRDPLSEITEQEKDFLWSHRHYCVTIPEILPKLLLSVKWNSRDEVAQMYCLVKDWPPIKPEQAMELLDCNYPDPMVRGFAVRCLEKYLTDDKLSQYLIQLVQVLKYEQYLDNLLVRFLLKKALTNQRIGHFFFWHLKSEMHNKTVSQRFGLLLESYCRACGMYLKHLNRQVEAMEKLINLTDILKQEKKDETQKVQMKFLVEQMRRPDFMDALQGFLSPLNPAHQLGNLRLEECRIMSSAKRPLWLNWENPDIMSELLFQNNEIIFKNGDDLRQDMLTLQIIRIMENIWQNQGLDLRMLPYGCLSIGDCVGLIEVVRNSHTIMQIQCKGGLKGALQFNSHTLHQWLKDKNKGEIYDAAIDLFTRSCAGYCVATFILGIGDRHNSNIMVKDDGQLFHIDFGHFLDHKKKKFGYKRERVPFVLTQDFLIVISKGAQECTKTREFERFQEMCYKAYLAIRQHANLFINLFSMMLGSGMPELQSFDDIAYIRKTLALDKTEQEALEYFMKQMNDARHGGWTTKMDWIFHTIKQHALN
T1 sequence (P27986 whole entry partner): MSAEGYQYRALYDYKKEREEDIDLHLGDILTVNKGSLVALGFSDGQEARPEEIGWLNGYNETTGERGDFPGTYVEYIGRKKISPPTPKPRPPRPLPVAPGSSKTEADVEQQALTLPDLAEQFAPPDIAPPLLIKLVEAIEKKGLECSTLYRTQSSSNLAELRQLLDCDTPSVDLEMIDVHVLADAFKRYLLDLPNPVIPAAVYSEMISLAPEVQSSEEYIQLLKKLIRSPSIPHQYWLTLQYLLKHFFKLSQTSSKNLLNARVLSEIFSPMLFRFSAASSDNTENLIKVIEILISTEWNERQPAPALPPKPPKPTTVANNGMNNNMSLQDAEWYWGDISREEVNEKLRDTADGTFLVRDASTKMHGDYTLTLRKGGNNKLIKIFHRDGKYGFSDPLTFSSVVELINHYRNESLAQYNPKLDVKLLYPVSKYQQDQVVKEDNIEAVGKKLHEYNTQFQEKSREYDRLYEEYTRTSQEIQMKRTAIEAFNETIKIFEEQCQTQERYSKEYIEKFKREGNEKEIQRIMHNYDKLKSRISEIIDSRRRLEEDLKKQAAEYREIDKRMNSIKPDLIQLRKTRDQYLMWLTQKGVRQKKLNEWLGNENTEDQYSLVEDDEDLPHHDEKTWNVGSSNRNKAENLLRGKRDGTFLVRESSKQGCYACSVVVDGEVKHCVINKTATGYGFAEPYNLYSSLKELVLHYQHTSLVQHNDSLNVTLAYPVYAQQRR
Outline: (§1)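 ADP formation measured by ADP-Glo luminescence after reaction at 27 °C to about 10% ATP turnover, using 20 uM ATP, 50 uM PIP2diC8 or soy PI lipid, HEPES pH 7.4 with MgCl2. Enzyme (1-5 nM WT or H1047R p110α/p85α) and compound preincubated 1 h first; 10-point 1:3 curves fitted four-parameter for IC50.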

[3] = molecular target: T2, PI3K-α (PIK3CA) wild-type (WT), p110α/p85α complex (Homo sapiens, UniProt P42336); experiment: PI3K-alpha kinase (PIK3CA) biochemical activity, ADP-Glo, wild-type; details: Soy PI lipid substrate
T2 construct: Recombinant, catalytically active human full length PIK3KA Wild-type and H1047R mutant; 6×His (N); purchased EMD Millipore Sigma 14-602M
Outline: as §1

PI3K-α (PIK3CA) in MDA-MB-453 cells, sequence (P27986 2-724): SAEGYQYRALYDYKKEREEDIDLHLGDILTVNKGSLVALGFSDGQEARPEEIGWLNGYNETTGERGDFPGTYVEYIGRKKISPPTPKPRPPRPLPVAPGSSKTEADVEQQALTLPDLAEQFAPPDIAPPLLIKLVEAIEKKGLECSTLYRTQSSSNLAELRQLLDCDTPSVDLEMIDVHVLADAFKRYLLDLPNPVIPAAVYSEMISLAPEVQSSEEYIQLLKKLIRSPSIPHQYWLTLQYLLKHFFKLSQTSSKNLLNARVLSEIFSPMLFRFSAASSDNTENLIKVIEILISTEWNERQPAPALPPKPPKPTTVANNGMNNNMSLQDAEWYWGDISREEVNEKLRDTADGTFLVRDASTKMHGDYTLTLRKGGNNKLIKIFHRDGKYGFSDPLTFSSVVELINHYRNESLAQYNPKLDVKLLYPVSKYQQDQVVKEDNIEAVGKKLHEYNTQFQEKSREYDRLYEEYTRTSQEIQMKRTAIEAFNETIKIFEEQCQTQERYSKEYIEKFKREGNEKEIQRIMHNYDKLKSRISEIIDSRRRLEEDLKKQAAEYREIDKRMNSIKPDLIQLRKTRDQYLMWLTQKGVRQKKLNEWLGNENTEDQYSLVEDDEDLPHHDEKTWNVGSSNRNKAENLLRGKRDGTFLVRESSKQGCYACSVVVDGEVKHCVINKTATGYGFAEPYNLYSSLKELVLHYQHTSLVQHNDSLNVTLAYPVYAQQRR
PI3K-α (PIK3CA) in MDA-MB-453 cells, sequence (P42336 whole entry): as the sequence (P42336 whole entry H1047R) above, with R1047H counted along it

| SMILES | IC50 [1] | IC50 [2] | IC50 [3] |
| --- | --- | --- | --- |
| Cc1cc(C(C)Nc2ccccc2C(=O)O)c2oc(-c3ccc4nn(C)cc4c3)cc(=O)c2c1 (single isomer, unassigned) [Example 75, 2-[1-[6-Methyl-2-(2-methylindazol-5-yl)-4-oxo-chromen-8-yl]ethylamino]benzoic acid] | < 0.05 µM | < 0.5 µM | 0.5 to 1 µM |
| Cc1cc(C(C)Nc2ccccc2C(=O)O)c2oc(-c3ccc4cnn(C)c4n3)cc(=O)c2c1 (single isomer, unassigned) [Example 82, 2-[1-[6-Methyl-2-(1-methylpyrazolo[3,4-b]pyridin-6-yl)-4-oxo-chromen-8-yl]ethylamino]benzoic acid] | 0.1 to 0.5 µM | < 0.5 µM | 0.5 to 1 µM |
| Cc1cc(C(C)Nc2ccccc2C(=O)O)c2oc(-n3ncc4c(F)cccc43)cc(=O)c2c1 (single isomer, unassigned) [Example 86] | 0.05 to 0.1 µM | < 0.5 µM | 0.5 to 1 µM |
| Cc1cc(C(C)Nc2ccccc2C(=O)O)c2oc(-n3ncc4c(C)cccc43)cc(=O)c2c1 (single isomer, unassigned) [Example 88, 2-[1-[6-Methyl-2-(4-methylindazol-1-yl)-4-oxo-chromen-8-yl]ethylamino]benzoic acid] | 0.1 to 0.5 µM | < 0.5 µM | 0.5 to 1 µM |
| Cc1cc(C(C)Nc2ccccc2C(=O)O)c2oc(-c3ccc4cc[nH]c4c3)c(C)c(=O)c2c1 (single isomer, unassigned) [Example 90, 2-[1-[2-(1H-Indol-6-yl)-3,6-dimethyl-4-oxo-chromen-8-yl]ethylamino]benzoic acid] | < 0.05 µM | < 0.5 µM | 1 to 5 µM |
| Cc1cc(C(C)Nc2ccccc2C(=O)O)c2oc(-c3ccc4nn(C)cc4c3)c(C)c(=O)c2c1 (single isomer, unassigned) [Example 91, 2-[1-[3,6-Dimethyl-2-(2-methylindazol-5-yl)-4-oxo-chromen-8-yl]ethylamino]benzoic acid] | < 0.05 µM | < 0.5 µM | 0.5 to 1 µM |
| Cc1cc(C(C)Nc2ccccc2C(=O)O)c2oc(-c3ccc4c(c3)OCO4)c(C)c(=O)c2c1 (single isomer, unassigned) [Example 93, 2-[1-[2-(1,3-Benzodioxol-5-yl)-3,6-dimethyl-4-oxo-chromen-8-yl]ethylamino]benzoic acid] | < 0.05 µM | < 0.5 µM | 0.5 to 1 µM |
| Cc1cc(C(C)Nc2ccccc2C(=O)O)c2oc(-c3cc(Cl)c4nn(C)cc4c3)cc(=O)c2c1 (single isomer, unassigned) [Example 95, 2-[1-[2-(7-Chloro-2-methyl-indazol-5-yl)-6-methyl-4-oxo-chromen-8-yl]ethylamino]benzoic acid] | < 0.05 µM | < 0.5 µM | 0.5 to 1 µM |
| Cc1cc(C(C)Nc2ccccc2C(=O)O)c2oc(-c3cc(F)c4nn(C)cc4c3)cc(=O)c2c1 (single isomer, unassigned) [Example 97, 2-[1-[2-(7-Fluoro-2-methyl-indazol-5-yl)-6-methyl-4-oxo-chromen-8-yl]ethylamino]benzoic acid] | < 0.05 µM | < 0.5 µM | 1 to 5 µM |
| CC(Nc1ccc(Cl)nc1C(=O)O)c1cc(C(F)(F)F)cc2c(=O)cc(-c3ccc4cnn(C)c4c3)oc12 (single isomer, unassigned) [Example 108, 6-Chloro-3-[1-[2-(1-methylindazol-6-yl)-4-oxo-6-(trifluoromethyl)chromen-8-yl]ethylamino]pyridine-2-carboxylic acid] | < 0.05 µM | < 0.5 µM | 0.5 to 1 µM |
| CC(Nc1ccccc1C(=O)O)c1cc(C(F)(F)F)cc2c(=O)cc(-c3ccc4c(cnn4C)c3)oc12 (single isomer, unassigned) [Example 109, 2-[1-[2-(1-Methylindazol-5-yl)-4-oxo-6-(trifluoromethyl)chromen-8-yl]ethylamino]benzoic acid] | < 0.05 µM | < 0.5 µM | 1 to 5 µM |
| Cc1cc(C(C)Nc2ccccc2C(=O)O)c2oc(-c3cccc4ocnc34)cc(=O)c2c1 (single isomer, unassigned) [Example 110, 2-[1-[2-(1,3-Benzoxazol-4-yl)-6-methyl-4-oxo-chromen-8-yl]ethylamino]benzoic acid] | < 0.05 µM | < 0.5 µM | 5 to 10 µM |
| Cc1cc(C(C)Nc2ccccc2C(=O)O)c2oc(-c3cccc4nn(C)cc34)cc(=O)c2c1 (single isomer, unassigned) [Example 111, 2-[1-[6-Methyl-2-(2-methylindazol-4-yl)-4-oxo-chromen-8-yl]ethylamino]benzoic acid] | 0.1 to 0.5 µM | < 0.5 µM | 0.5 to 1 µM |
| Cc1cc(C(C)Nc2ccccc2C(=O)O)c2oc(-c3ccn4nccc4c3)cc(=O)c2c1 (single isomer, unassigned) [Example 113, 2-[1-(6-Methyl-4-oxo-2-pyrazolo[1,5-a]pyridin-5-yl-chromen-8-yl)ethylamino]benzoic acid] | < 0.05 µM | < 0.5 µM | 0.5 to 1 µM |
| Cc1cc(C(C)Nc2ccccc2C(=O)O)c2oc(-c3ccc4c(c3)NC(=O)C4)cc(=O)c2c1 (single isomer, unassigned) [Example 115, 2-[1-[6-Methyl-4-oxo-2-(2-oxoindolin-6-yl)chromen-8-yl]ethylamino]benzoic acid] | 0.1 to 0.5 µM | < 0.5 µM | 1 to 5 µM |
| Cc1cc(C(C)Nc2ccccc2C(=O)O)c2oc(-c3cccc4cn(C)nc34)cc(=O)c2c1 (single isomer, unassigned) [Example 116, 2-[1-[6-Methyl-2-(2-methylindazol-7-yl)-4-oxo-chromen-8-yl]ethylamino]benzoic acid] | 0.1 to 0.5 µM | < 0.5 µM | > 10 µM |
| Cc1cc(C(C)Nc2ccccc2C(=O)O)c2oc(-c3cccc4oc(C)nc34)cc(=O)c2c1 (single isomer, unassigned) [Example 117, 2-[1-[6-Methyl-2-(2-methyl-1,3-benzoxazol-4-yl)-4-oxo-chromen-8-yl]ethylamino]benzoic acid] | > 0.5 µM | 0.5 to 1 µM | 1 to 5 µM |
| Cc1cc(C(C)Nc2ccccc2C(=O)O)c2oc(-c3ccc4cn[nH]c4c3)c(C)c(=O)c2c1 (single isomer, unassigned) [Example 120, 2-[1-[2-(1H-Indazol-6-yl)-3,6-dimethyl-4-oxo-chromen-8-yl]ethylamino]benzoic acid] | < 0.05 µM | < 0.5 µM | 0.5 to 1 µM |
| Cc1cc(C(C)Nc2ccccc2C(=O)O)c2oc(-c3cnn4ccccc34)cc(=O)c2c1 (single isomer, unassigned) [Example 125, 2-[1-(6-Methyl-4-oxo-2-pyrazolo[1,5-a]pyridin-3-yl-chromen-8-yl)ethylamino]benzoic acid] | < 0.05 µM | < 0.5 µM | 1 to 5 µM |
| Cc1cc(C(C)Nc2ccccc2C(=O)O)c2oc(-c3cc(C)c4nn(C)cc4c3)cc(=O)c2c1 (single isomer, unassigned) [Example 126, 2-[1-[2-(2,7-Dimethylindazol-5-yl)-6-methyl-4-oxo-chromen-8-yl]ethylamino]benzoic acid] | < 0.05 µM | < 0.5 µM | 1 to 5 µM |
